This is an account of results in publication PMC9317670, “Temporal and Wash-Out Studies Identify Medicines for Malaria Venture Pathogen Box Compounds with Fast-Acting Activity against Both Trypanosoma cruzi and Trypanosoma brucei” (Microorganisms, 2022).

The structures appear in SMILES notation. Where two headings read alike, the source gives them in different places. Some results are limits rather than exact numbers.

In data set [1] the test system is T. cruzi Tulahuen strain parasites in 3T3 host cells. Put plainly: T. cruzi 48 h image-based assay. The class given is cell-based, Trypanosoma cruzi.
The test system of data set [2] is T. cruzi. On the set-up: method as in PMID 25583723. To be noted: 96 h; ref [54]; read-out: IC50 T. cruzi following 96 h incubation; cited from earlier work.
For data set [3], the system named is T. cruzi Tulahuen strain parasites in 3T3 host cells. On the set-up: method as in PMID 28674055. To be noted: liquid stocks; ref [16]; read-out: IC50 T. cruzi in the previous studies; cited from earlier work.
Data set [4] concerns T.b. brucei. On the set-up: method as in PMID 26258172. The settings on record: ref [53]; read-out: IC50 T.b. brucei, previously reported; cited from earlier work.
Data set [5] concerns T.b. brucei bloodstream 427 strain parasites. As to the kind of experiment: T.b. brucei 72 h REDOX-based (resazurin) viability assay. The class given is cell-based, Trypanosoma brucei brucei. To be noted: for SI (T.b. brucei) HEK: selectivity index in relation to HEK293 cells; for SI (T.b. brucei) (HEP): selectivity index in relation to HEPG2 cells.
In data set [6] the test system is T. cruzi. Put plainly: T. cruzi compound wash off assay (48 h with compound, wash off, 72 h without). Type of data set: cell-based, Trypanosoma cruzi. To be noted: T. cruzi; for IC50 / Emax: 48 h incubation, wash off, further 72 h; for IC50: read-out: IC50 Wash Off; for Fold Change of IC50, wash off vs 48 h: IC50 from 48 h incubation to IC50 following wash off and further 72 h.

Another data set has as its system HEK293 cells. Put plainly: HEK293 cytotoxicity assay. The settings on record: HEK293, 72 h; NA = not active; highest dose 79 µM unless given. Type of data set: cell-based, human.
Data set [7] concerns T.b. brucei. Put plainly: T.b. brucei temporal viability (time-kill) assay, 48 h, PrestoBlue. To be noted: for IC50: read-out: IC50 48 h T.b. brucei; for Emax: read-out: Emax 48 h T.b. brucei (converted). Type of data set: cell-based, Trypanosoma brucei brucei.
Data set [8] has as its system bovine peripheral blood mononuclear cells (PBMCs). On the set-up: method as in PMID 30771616. To be noted: 24 h incubation; ref [55]; read-out: IC50 against bovine PBMCs; cited from earlier work.
For data set [9], the system named is T. cruzi. Put plainly: T. cruzi temporal image-based assay, 24 h exposure. The class given is cell-based, Trypanosoma cruzi. To be noted: for IC50: NA = not active at given concentration, read-out: IC50 24 h T. cruzi.
In a further data set the test system is T. cruzi and T.b. brucei. As to the kind of experiment: Speed of action and cidality classification from temporal and wash off assays. The class given is cell-based, Trypanosoma cruzi, Trypanosoma brucei brucei. To be noted: for Speed of Action (FA/SA): TC = T. cruzi, TBB = T.b. brucei; for Speed of Action (Table 5): prioritised compounds, Fast/Slow.
The next data set relates to HEPG2 cells. As to the kind of experiment: HEPG2 cytotoxicity assay. The class given is cell-based, human. The settings on record: HEPG2, 72 h, NA = not active, highest dose 79 µM unless given.
Data set [10] concerns T.b. brucei. Put plainly: T.b. brucei temporal viability (time-kill) assay, 24 h, PrestoBlue. The class given is cell-based, Trypanosoma brucei brucei. To be noted: for IC50: read-out: IC50 24 h T.b. brucei; for Emax: read-out: Emax 24 h T.b. brucei (converted). The method, then:
Time-kill assays was undertaken as previously described, using the REDOX reagent PrestoBlue® [24]. […] Control compounds were added at the same concentrations at outlined for the resazurin-based assays.

Another data set has as its system T.b. rhodesiense STIB900. As to the kind of experiment: T.b. rhodesiense STIB900 assay, 72 h. To be noted: Trypanosoma brucei, read-out: IC50 T. bR (T.b. rhodesiense). The class given is cell-based.
For data set [11] the following is noted: in vivo, species not stated; ref [10]; cited from earlier work.
The next data set relates to T.b. gambiense STIB930. Put plainly: T.b. gambiense STIB930 assay, 72 h. To be noted: Trypanosoma brucei, unit inferred, read-out: IC50 T. Bg STIB930 (T.b. gambiense). Type of data set: cell-based.
In the next data set the test system is CYP1A2. Details: method as in earlier work. The settings on record: Pathogen Box in vitro DMPK data; ref [10]; cited from earlier work.
Data set [12] deals with T. cruzi recombinant CYP51 (TcCYP51) (Trypanosoma cruzi, UniProt Q7Z1V1). As to the kind of experiment: biochemical.
Description: The inhibitory properties of compounds against T. cruzi recombinant CYP51 (TcCYP51) was determined using an in vitro assay as previously described [33, 41]. Compounds which inhibited T. cruzi in an image-based assay were tested against TcCYP51 in log concentrations (100, 33, 10, 3.3, 1.0, 0.33, 0.1 and 0 µM), with one replicate per dose, as previously described [41]. The control compound posaconazole was incubated at the same concentrations as the test compounds, over two replicates.
Of the fast-acting compounds, if there was more than one compound with activity against T. cruzi, one representative compound from each chemical class was selected. […] Slow-acting compounds were also tested for activity against TcCYP51. The criteria defining a compound with TcCYP51 activity required that the IC50 value was within a log difference to posaconazole, as previously reported [33].
For data set [13] the following is noted: control drugs; ref DrugBank; cited from earlier work.
The conditions of data set [14]: ref [8]; cited from earlier work.
Data set [15] deals with T. cruzi. On the set-up: method as in PMID 29016289. To be noted: treated for 40 days; ref [4]; cited from earlier work.
The mark [16] stands for this setting: Trypanosoma cruzi, TULAHUEN, 48 h; read-out: Emax % (T. cruzi) (converted).
The mark [17] stands for this setting: Trypanosoma cruzi, TULAHUEN, 48 h; read-out: IC50 (T. cruzi).
Where [18] appears, read: selectivity index in relation to 3T3 host cells; highest dose 3T3 73 µM.
[19] abbreviates: selectivity index in relation to HEK293 cells.
Setting [20] is: selectivity index in relation to HEPG2 cells.

Chain of T. cruzi recombinant CYP51 (TcCYP51) (Q7Z1V1 whole entry): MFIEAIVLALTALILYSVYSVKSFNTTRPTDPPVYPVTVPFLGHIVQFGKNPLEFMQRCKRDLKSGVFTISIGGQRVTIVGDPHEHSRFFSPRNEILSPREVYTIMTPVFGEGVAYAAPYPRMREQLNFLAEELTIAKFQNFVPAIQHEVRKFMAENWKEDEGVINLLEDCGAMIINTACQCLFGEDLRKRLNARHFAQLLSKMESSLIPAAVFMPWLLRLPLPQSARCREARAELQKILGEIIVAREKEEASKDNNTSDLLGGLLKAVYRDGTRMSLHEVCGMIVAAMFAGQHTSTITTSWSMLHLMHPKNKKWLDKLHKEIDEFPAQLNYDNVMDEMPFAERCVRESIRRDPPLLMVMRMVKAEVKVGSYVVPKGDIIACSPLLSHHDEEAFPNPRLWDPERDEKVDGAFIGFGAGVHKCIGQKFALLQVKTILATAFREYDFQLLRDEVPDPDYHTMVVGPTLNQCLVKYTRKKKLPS

On to `CC(C)=CCC/C(C)=C/CNCCNC1C2CC3CC(C2)CC1C3` (stereo not drawn) [MMV687273], for which the half-maximal inhibitory concentration (IC50) was 13000 nM in [1] (Trypanosoma cruzi, TULAHUEN, 48 h, read-out: IC50 (T. cruzi)); 500 to 1000 nM in the data set on T. cruzi [2]; 5400 nM in data set [3]; 5000 nM in the data set with T.b. brucei [4].
For the molecule `O=C(Nc1ccc(F)c(-c2nc3ncc(-c4ccccc4)cc3[nH]2)c1)N1CCCC1` [MMV 688372], the “Emax % (T.b. brucei)” value in [5] (72 h) was determined as 99%. Moreover, the IC50 in [5] (72 h) is 14 ± 2.4 nM; in the data set on T. cruzi [6], 130 ± 2.9 nM; in data set [1] (48 h; read-out: IC50 (T. cruzi)) it was 130 ± 9.7 nM; with HEK293 cells, 1800 ± 50.2 nM; with T.b. brucei [7] it was 13 ± 0.32 nM; in data set [8] it was 5300 nM. Besides, the concentration for half-maximal inhibition (IC50) with T. cruzi [9] is 1600 ± 64 nM; with HEPG2 cells (read-out: IC50 (HEP) (converted)), 3600 nM; with T.b. brucei [10], 34 ± 2 nM. Moreover, the “Emax % (T. cruzi)” value in data set [1] (48 h) was 99%; in data set [1] (48 h; listed as MMV688372) it was over 95%. Moreover, the “Emax 48 h T.b. brucei” value in the data set on T.b. brucei [7] turned out to be 100%. Besides, the “Emax 24 h T. cruzi” value in the data set with T. cruzi [9] amounted to 75%. Besides, the “Speed of Action (FA/SA)” value in the data set on T. cruzi and T.b. brucei is “SA (TC)”. Moreover, in the data set on T. cruzi and T.b. brucei, the “Speed of Action (Table 5)” value is on record as “Slow”. Also, the “Emax 24 h T.b. brucei” value in the data set on T.b. brucei [10] is on record as 83%.
In the case of `Cc1ccc(S(=O)(=O)Nc2ccc(CN3CCN(C(=O)c4cccc(C#N)c4)CC3)cc2)cc1` [MMV 689028], the Emax in data set [5] (Trypanosoma brucei, 72 h) was 99%; with T. cruzi [6] (Trypanosoma cruzi), 99%; in data set [1] (setting [16]), 100%; in the data set on T.b. brucei [7] (Trypanosoma brucei), 99%; in the data set with T. cruzi [9] (Trypanosoma cruzi), 91%; with T.b. brucei [10] (Trypanosoma brucei) it was 78%. Further, the 50% inhibitory concentration (IC50) in data set [5] (Trypanosoma brucei, 72 h) is 120 ± 30 nM; with T. cruzi [6] (Trypanosoma cruzi), 390 ± 20 nM; in [1] (setting [17]), 700 ± 130 nM; in the data set with T.b. rhodesiense STIB900 (STIB900, 72 h, unit inferred), 280 ± 11 nM; in the data set with T.b. gambiense STIB930, 48 ± 1.1 nM; in the data set with T.b. brucei [7] (Trypanosoma brucei), 110 ± 3.2 nM. Also, the half-inhibitory concentration (IC50) is 1100 ± 430 nM in the data set on T. cruzi [9] (Trypanosoma cruzi) and 720 ± 380 nM in the data set on T.b. brucei [10] (Trypanosoma brucei). In addition, in data set [5], the “SI (T.b. brucei) HEK” value is >658 (>658). Also, the “SI (T.b. brucei) (HEP)” value in data set [5] was >658 (>658). Further, the “Fold Change of IC50, wash off vs 48 h” value in the data set with T. cruzi [6] is reported as 0.86 fold. For the same molecule, the “SI (T. cruzi) 3T3” value in data set [1] (setting [18]) was over 104. In data set [1] (setting [19]), the “SI (T. cruzi) HEK” value is >113 (>113). For the same molecule, in data set [1] (setting [20]), the “SI (T. cruzi) (HEP)” value was >113 (>113). Further, in the data set with HEK293 cells, the “IC50 HEK” value is “no activity”. Besides, the Half-life in data set [11] was 6.8 h. The CYP1A2 induction entry in the data set on CYP1A2 was “induced CYP1A2 activity”. For the same molecule, the “Inhibition of TcCYP51 (in words)” value in data set [12] (criterion: IC50 within a log difference to posaconazole) was “nor exhibited TcCYP51 activity”. Moreover, in the data set with T. cruzi and T.b. brucei, the “Speed of Action (FA/SA)” value was “FA (Fast-acting (FA) = IC50 value can be determined following 24 h incubation, <10-fold difference in the IC50 value from 24 to 72 h)”. In the data set with T. cruzi and T.b. brucei, the “Speed of Action (Table 5)” value is recorded as “Fast”. In the data set with HEPG2 cells, the “IC50 (HEP)” value is reported as “no activity”.
For `COc1ccc(S(=O)(=O)Nc2ccc(CN3CCN(C(=O)c4cccc(C#N)c4)CC3)cc2)cc1` [MMV 689029], the Emax in data set [5] (Trypanosoma brucei, 72 h) was 99%; in the data set with T. cruzi [6] (Trypanosoma cruzi) it was 98%; in data set [1] (setting [16]), 100%; in the data set on T.b. brucei [7] (Trypanosoma brucei), 100%; in the data set with T. cruzi [9] (Trypanosoma cruzi), 90%; in the data set with T.b. brucei [10] (Trypanosoma brucei), 89%. The half-inhibitory concentration (IC50) was 420 ± 53 nM in [5] (Trypanosoma brucei, 72 h); 880 ± 56 nM with T. cruzi [6] (Trypanosoma cruzi); 1200 ± 67 nM in [1] (setting [17]); 630 ± 110 nM in the data set on T.b. rhodesiense STIB900 (STIB900, 72 h, unit inferred); 400 ± 120 nM with T.b. gambiense STIB930; 400 ± 23 nM with T.b. brucei [7] (Trypanosoma brucei). Further, the half-maximal inhibitory concentration (IC50) in data set [12] (top concentration 100 µM) is over 100000 nM; in the data set with T. cruzi [9] (Trypanosoma cruzi) it was 3700 ± 260 nM; with T.b. brucei [10] (Trypanosoma brucei), 980 ± 340 nM. For the same molecule, the “SI (T.b. brucei) HEK” value in data set [5] was >188 (>188). Further, in data set [5], the “SI (T.b. brucei) (HEP)” value is reported as >188 (>188). Besides, the “Fold Change of IC50, wash off vs 48 h” value in the data set on T. cruzi [6] worked out at 0.73 fold. Besides, the “SI (T. cruzi) 3T3” value in [1] (setting [18]) was over 61. The “SI (T. cruzi) HEK” value in data set [1] (setting [19]) is recorded as >66 (>66). In addition, the “SI (T. cruzi) (HEP)” value in data set [1] (setting [20]) is >66 (>66). The Half-life in [11] was 2.4 h. Further, the CYP1A2 induction result with CYP1A2 is “induced CYP1A2 activity”. The “Speed of Action (FA/SA)” value in the data set on T. cruzi and T.b. brucei is “FA (Fast-acting (FA) = IC50 value can be determined following 24 h incubation, <10-fold difference in the IC50 value from 24 to 72 h)”. In addition, the “Speed of Action (Table 5)” value in the data set on T. cruzi and T.b. brucei is “Fast”.
As to `Nc1nc(N)nc(Nc2ccc([As]3SCC(CO)S3)cc2)n1` (stereo not drawn) [Melarsoprol, reference compound], the IC50 in the data set with T.b. rhodesiense STIB900 (72 h) is 15 ± 4 nM. In addition, the lipophilicity (LogP) in [13] is 1.3. In addition, in data set [14], the “Fatality among patients in which encephalopathy develops” value was 50% and the “Post-treatment reactive encephalopathy, share of all treated cases” value is given as 5–10%.
Regarding `CC1(C)OB(O)c2cc(NC(=O)c3ccc(F)cc3C(F)(F)F)ccc21` [SCYX-7158], the “Cure of mice infected with T. cruzi” value in the data set on T. cruzi [15] was 100%.
